Measured values published in PubChem BioAssay AID651630 (Sanford-Burnham Center for Chemical Genomics, 2012).
Calls of active or inactive are those of the source.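 Rule for the calls: active = lipid-stain IC50 at or below a set limit, with nuclear-stain toxicity IC50 at least five times higher; inactive = the rest.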

Experiments:
TAG = assay: triacylglycerol accumulation inhibitor potency, dose response, cell-based, panel, Nile Red and DAPI fluorescence, H9c2 (AID 651630); details: H9c2 cells, Nile Red TAG fluorescence, oleic acid;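 note: cells exposed to compound overnight before fixation and staining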
DAPI = assay: as above; details: H9c2 cells, DAPI nuclear fluorescence (cytotoxicity counter-readout), oleic acid

SMILES | IC50 (TAG; mean of runs) | IC50 (TAG; run 1) | IC50 (TAG; run 2) | IC50 cytotoxicity (DAPI nuclear signal decrease) (DAPI; run 1) | IC50 cytotoxicity (DAPI nuclear signal decrease) (DAPI; run 2) | IC50 cytotoxicity (DAPI nuclear signal decrease) (DAPI; mean of runs)
O=C(C[C@H]1C[C@H](C(=O)N2CCOCC2)[C@@]2(CCC3CCCC3)c3[nH]c4cc(-c5ccco5)ccc4c3CCN2C1=O)NCC12CC3CC(CC(C3)C1)C2 | 3.68 µM | 4.04 µM | 3.32 µM | > 25 µM | > 25 µM | –
COc1ccc(OC)c(C2CC(c3ccccc3)=NN2C(=S)Nc2ccccc2)c1 (stereo not given) | > 25 µM (inactive) | > 25 µM | > 25 µM | > 25 µM | > 25 µM | > 25 µM (inactive)
O=[N+]([O-])c1cccc(S(=O)(=O)N2CN(c3ccc(Br)cc3)c3nc4ccccc4nc32)c1 | 8.37 µM | 8.4 µM | 8.34 µM | > 25 µM | > 25 µM | > 25 µM (inactive)
COc1ccc(-c2nn(-c3ccccc3)cc2/C=C/C(=O)OCC(=O)Nc2ccccc2C#N)cc1 | – | 16.5 µM | > 25 µM | > 25 µM | > 25 µM | > 25 µM (inactive)
CCC(C)(C)C1CCC2(CC1)NC(=O)N(CC(=O)NCCc1ccc(OC)c(OC)c1)C2=O (stereo not given) | 3.29 µM | 1.91 µM | 4.67 µM | > 25 µM | > 25 µM | –
CCCCSc1nc2ccc(Nc3nc(N4CCOCC4)nc(N4CCOCC4)n3)cc2s1 | 4.78 µM | 4.98 µM | 4.59 µM | > 25 µM | > 25 µM | –
CCCCc1ccc(N=N/C(C(=O)Nc2cc(OC)c(NC(C)=O)cc2OC)=C(/C)O)cc1 | 10.1 µM | 11.4 µM | 8.79 µM | > 25 µM | > 25 µM | > 25 µM (inactive)
COc1ccc(-c2cc(CNc3nc(NC(C)C)nc4cc(-c5ccccc5)sc34)on2)cc1 | 6.39 µM | 6.47 µM | 6.31 µM | > 25 µM | > 25 µM | > 25 µM (inactive)
Cc1ccc(-c2cc(C(F)F)n3ncc(C(=O)Nc4c(C)nn(Cc5c(Cl)cccc5Cl)c4C)c3n2)cc1 | > 25 µM (inactive) | > 25 µM | > 25 µM | > 25 µM | > 25 µM | > 25 µM (inactive)
COc1ccc2[nH]c3c(c2c1)CCN1C(=O)C(CC(=O)NCC24CC5CC(CC(C5)C2)C4)C[C@H](C(=O)N2CCOCC2)[C@@]31CCC1CCCC1 (stereo not given in full) | – | 4.99 µM | > 25 µM | > 25 µM | > 25 µM | > 25 µM (inactive)
COc1cc(-c2nc3c(c(C)nn3-c3ccccc3)c3cc(OC)c(OC)cc23)ccc1O | > 25 µM (inactive) | > 25 µM | > 25 µM | > 25 µM | > 25 µM | > 25 µM (inactive)
COc1ccc(-c2cnc3c(NC=O)cc(-c4cccc(NS(C)(=O)=O)c4)cn23)cc1OC | 13.1 µM | 12.8 µM | 13.3 µM | 20.1 µM | 23 µM | 21.6 µM (inactive)
CC(=O)Nc1ccc(-c2ccnc3c2CC(C(=O)NCc2cccc(Cl)c2)O3)cc1 (stereo not given) | 13.3 µM | 15.9 µM | 10.7 µM | > 25 µM | > 25 µM | > 25 µM (inactive)
COc1ccc(-n2nc(C(=O)Nc3ccc4c(c3)OCO4)c3c4ccccc4n(C)c3c2=O)cc1 | – | 24.8 µM | > 25 µM | > 25 µM | > 25 µM | > 25 µM (inactive)
C[C@H](O)C#Cc1ccc2c(c1)O[C@@H](CN(C)Cc1ccc(-c3ccccc3)cc1)[C@H](C)CN([C@@H](C)CO)S2(=O)=O | – | > 25 µM | 17.9 µM | > 25 µM | > 25 µM | > 25 µM (inactive)
CCOc1ccc(NC(=O)c2ccc(NC(=O)CSc3nc4ccccc4c(=O)[nH]3)cc2)cc1 | – | 24.6 µM | > 25 µM | > 25 µM | > 25 µM | > 25 µM (inactive)
CN(C)c1ccc(NC(=O)CSc2nc3ccccc3c(=O)n2C2CCCCC2)cc1 | – | > 25 µM | 20 µM | > 25 µM | > 25 µM | > 25 µM (inactive)

SMILES | IC50 (TAG; mean of runs) | IC50 (TAG; run 1) | IC50 (TAG; run 2) | IC50 cytotoxicity (DAPI nuclear signal decrease) (DAPI; run 1) | IC50 cytotoxicity (DAPI nuclear signal decrease) (DAPI; run 2) | IC50 cytotoxicity (DAPI nuclear signal decrease) (DAPI; mean of runs)
COc1ccc2nc(NC(=O)c3cccc(OCc4c(C)noc4C)c3)sc2c1 | 17.6 µM (inactive) | 17.4 µM | 17.8 µM | > 25 µM | > 25 µM | > 25 µM (inactive)
CC(C)(C)OC(=O)N(CCc1ccccc1)Cc1ccc(OCc2cccc(NC(=O)/C=C/c3ccccc3)c2)cc1 | 7.63 µM | 7.99 µM | 7.28 µM | > 25 µM | > 25 µM | > 25 µM (inactive)
CN(C)C(=O)c1cccc(-c2cnc3c(NC=O)cc(-c4ccc(C(=O)N5CCOCC5)cc4)cn23)c1 | 8.71 µM | 3.47 µM | 13.9 µM | > 25 µM | > 25 µM | > 25 µM (inactive)
CC(Sc1nc(NCc2ccccc2)nc(N2CCOCC2)n1)C(=O)Nc1ccccc1 (stereo not given) | 1.44 µM | 1.29 µM | 1.58 µM | > 25 µM | > 25 µM | –
c1ccc(-c2nc(N3CCOCC3)cc(N3CCOCC3)n2)cc1 | 9.99 µM | 5.81 µM | 14.2 µM | > 25 µM | > 25 µM | > 25 µM (inactive)
CCCN(CCC)CCNC(=O)c1cc2c(=O)n(CC)c3ccccc3c2s1 | > 25 µM (inactive) | > 25 µM | > 25 µM | > 25 µM | > 25 µM | > 25 µM (inactive)
CCOC(=O)Cc1ccc(Nc2nc3cc(-c4sccc4C)sc3c(=O)n2C)cc1 | 18.5 µM (inactive) | 12.9 µM | 24.1 µM | > 25 µM | > 25 µM | > 25 µM (inactive)
COc1cc(CNC(=O)Nc2nc(C(N)Cc3ccc(C(F)(F)F)cc3)cs2)cc(OC)c1OC (stereo not given) | 8.38 µM | 8.1 µM | 8.66 µM | > 25 µM | > 25 µM | > 25 µM (inactive)
COc1ccc(-c2ccc3[nH]c4c(c3c2)CCN2C(=O)[C@@H]([C@H](C)O)[C@@H](N(C)C(=O)Nc3cc(Cl)cc(Cl)c3)C[C@@H]42)cc1 | 19.5 µM (inactive) | 17.4 µM | 21.5 µM | > 25 µM | > 25 µM | > 25 µM (inactive)
COc1cc2ccccc2cc1C(=O)N/N=C/c1cccs1 | > 25 µM (inactive) | > 25 µM | > 25 µM | > 25 µM | > 25 µM | > 25 µM (inactive)
C=CC[C@@H](CC(=O)N(CCO)Cc1ccccc1)C(=O)N[C@H](COC(=O)[C@@H](CC=C)CC(=O)OC(C)(C)C)C(C)(C)C | 3.39 µM | 4.3 µM | 2.48 µM | > 25 µM | > 25 µM | –
CCOc1ccc(S(=O)(=O)NCc2ccccn2)cc1NC(=O)c1ccccc1 | > 25 µM (inactive) | > 25 µM | > 25 µM | > 25 µM | > 25 µM | > 25 µM (inactive)
COCCCn1c(N)c(C(=O)Nc2ccccc2)c2nc3ccccc3nc21 | 13.5 µM | 11.8 µM | 15.2 µM | > 25 µM | > 25 µM | > 25 µM (inactive)
O=C(Nc1ccc([N+](=O)[O-])cn1)c1cc(-c2cccc(Cl)c2)nc2ccccc12 | 3.69 µM | 3.93 µM | 3.46 µM | > 25 µM | > 25 µM | –
Cc1cc(C)c(NC(=O)CSc2nc3ccc(NC(=O)CSc4nnnn4Cc4ccccc4)cc3s2)c(C)c1 | > 25 µM (inactive) | > 25 µM | > 25 µM | > 25 µM | > 25 µM | > 25 µM (inactive)
Cc1ccc(-n2nc(C)c3c(C)c(CCC(=O)Nc4ccc(CN5CCCC5)cc4)c(C)nc32)cc1 | – | 20.6 µM | > 25 µM | > 25 µM | > 25 µM | > 25 µM (inactive)
